How the values were obtained:
[1] = tested on: peripheral blood lymphocytes; assay: Sister Chromatid Exchange (mutagenicity); format: cell-based, human; conditions: FIG. 2, compared with selenite and selenomethionine
Description: FIG. 2 describes the effect that GSSeSG has with respect to the mutagenicity of three selenium containing, cancer treating agents as a function of their respective concentrations. More particularly, the preferred selenodithiol, GSSeSG is contrasted with two other selenium containing compounds, selenite and selenomethionine in the treatment of peripheral blood lymphocytes, i.e., normal human cells taken from different sections of the body. […] As one in the art is aware, in the technique known as Sister Chromatid Exchange (SCE) the particular nucleotide components which comprise the DNA genetic code cross over to form cell mutations which lead to the birth and growth of rapidly dividing neoplastic cells.

[2] = tested on: secondary superficial tumors; assay: Injection at site distant from the tumor; format: in vivo, rats; conditions: effective dosages injected at site distant from the tumor
Method: It has further been discovered that rats which are injected with effective dosages of GSSeSG at site distant from the tumor will still kill the cancer tumors.

[3] = tested on: DMBA (7,12-dimethylbenz(a)anthracene) induced tumors; assay: DMBA-induced tumors in rats, injection of agents (Table 1, FIG. 3); format: in vivo
Description: The Table contrasts the results obtained by the desired dosage with the results obtained from four other groups of ten rats; the rats in each group being inoculated with cancer immunotoxins in differing dosages of both GSSeSG, retinol (HPR) and mixtures of each, as well as a control sample of […] which were not administered with cancer treating agents. All one hundred rats were inoculated with DMBA (7,12-dimethylbenz(a)anthracene) so as to induce cancer cell formation, which was then allowed to form tumors over a period of two months prior to testing. […] Thus, Table 1 clearly illustrates both the effectiveness of GSSeSG when utilized in the desired range of proportions and also the fact that even relatively small variations in excess of the crisis zone in its administration will cause severe damage to the host subject, while the proper range of dosages is substantially non-toxic to the treated host.

rat mammary tumor = assay: Direct injection into rat mammary tumor (FIG. 12, FIG. 13); format: in vivo
Method: The tumor was induced in each rat by the administration of 7,12-dimethylbenz(a)anthracene and allowed to proliferate to the predetermined sized range of 1.5 to 2.5 centimeters in diameter. The selenodiglutathione was injected at a level of 700 micrograms directly into the central region of the tumor mass fifteen times over the course of thirty days.
FIG. 13 illustrates a table comparing the volume changes of three rat mammary cancer tumors injected over time. The curve marked "C" represents the volume increase in a control tumor injected with eluate from the column but with no selenodithiol. Curves "L" and "H" represent cancer tumors injected according to different treatment schedules of selenodiglutathione. The "L" tumor received a dose of selenodiglutathione of 1.46cc of 7×10^-3 M every forty eight hours for twenty eight days while the "H" tumor received a dose of selenodiglutathione of 2.8cc of 7×10^-3 M every ninety six hours for twenty eight days. […] The control tumor, C, continued to increase in volume dramatically.

human tumor cell lines = assay: Cell culture assay (microculture tetrazolium/MTT assay); format: cell-based
Description: The purpose of the cell culture assay is a method for measuring at what concentration of the cancer treating agent will inhibit neoplastic cell division or protein synthesis, and thus cause the death of the neoplastic cells. The particular assay technique is a modification of that described by Mosmann, Jour. of Immunol. Meth., 65, 1983, pp. 55-63. The cell lines used for the in vitro assay are: […]
The plating density of each cell type used in the assay is set forth below: […]
The procedure followed involved adding for each cell type 200 microliters of the cell suspension at the concentration determined above, to each well of a 96-well plate. The plates were allowed to incubate for twenty four hours at 37° C. and humidified in the presence of a 5% CO2 atmosphere, whereupon 20 microliters of GSSeSG concentrations ranging from 10^-8 M to 10^-4 M were added to the wells located on the plate. A variety of concentrations of cycloheximide and adriamycin were utilized as a control. The resulting plates were incubated for six days at 37° C., humidified in a 5% CO2 atmosphere and on the final day of the assay, 20 μl were added to each well of [MTT 3-(4,5-dimethylthiazol-2-yl)-2,5-diphenyl tetrazolium bromide], obtained from Sigma Cat #M2128. The MTT is prepared by combining 5mg/ml of a phosphate buffered saline (PBS) solution. […] Upon completion, the optical density of each well was read on an elisa plate reader set at 570nm (test sample) and 630nm (for reference).
FIGS. 4 through 11 provide comparisons of the effects at increasing concentrations of adriamycin and GSSeSG as measured by variations in optical density of various cell solutions. […] Variations in optical density, measured by a spectrophotometer, are indicative of the level of cellular activity. […]

[4] = molecular target: T1, elongation factor 2 (EF-2) (Rattus norvegicus, UniProt P05197); conditions: cell-free system derived from rats; cited from earlier work
T1 construct: in a cell-free system derived solely from rats

[5] = tested on: Malignant Mouse Lymphoid Cells; conditions: intraperitoneal injections, mice previously inoculated with tumor cells, versus untreated control; cited from earlier work
[6] = tested on: Human Breast Cancer Cells; conditions: parenteral administration, mice; cited from earlier work
[7] = tested on: DMBA-induced mammary tumorigenesis; conditions: cited from earlier work
[8] = tested on: DU-145 Human Prostate Carcinoma Cells; conditions: in vitro; cited from earlier work
EF-2 = EF-2 (Rattus norvegicus, UniProt P05197); conditions: in vitro amino acid incorporation; cited from earlier work
[9] = 1 μg per gram of rat body weight
[10] = retinol alone or GSSeSG mixed with retinol, groups of ten rats

## N[C@@H](CCC(=O)N[C@@H](CS[Se]SC[C@H](NC(=O)CC[C@H](N)C(=O)O)C(=O)NCC(=O)O)C(=O)NCC(=O)O)C(=O)O [GSSeSG, selenodiglutathione]
[1]
  number of Sister Chromatid Exchanges (inducible mutation): low number
[2]
  effect on tumors distant from the point of injection: disappearance of secondary superficial tumors
[3]; [9]
  effect on cancer cells: substantial elimination of the cancer cells
  harm to the rats as indicated by bodyweight: substantially no harm to the rats
[3]; 2 μg of GSSeSG per gram of bodyweight, ten rats, seventy nine days
  mortality of rats: all but one of these specimens are dead
Rat mammary tumor; 1.46cc of 7×10^-3 M every forty eight hours for twenty eight days, FIG. 13
  tumor volume change, "L" tumor: stopped growing
Rat mammary tumor; 2.8cc of 7×10^-3 M every ninety six hours for twenty eight days, FIG. 13
  tumor volume change, "H" tumor: decreased in volume to a level significantly below the initial volume
Rat mammary tumor; 700 micrograms into central region of tumor, fifteen times over thirty days
  detrimental effect to the animal: without any detrimental effect
Rat mammary tumor; 700 micrograms into central region of tumor, fifteen times over thirty days, FIG. 12
  tumor size: decreased dramatically
Human tumor cell lines; FIG. 1
  concentration up to which neoplastic cell division increases: up to 10^-6 M
Human tumor cell lines; MTT, six days incubation
  concentration at which neoplastic cells survive (purple solution obtained): less than 10^-6 M
  concentration inhibiting neoplastic cell division or protein synthesis (purple solution not obtained): at least 10^-5 M
[4]
  effectiveness in inhibiting protein synthesis versus sodium selenite or oxidized glutathione: substantially more effective
[5]
  life span of the animals: increased the life span
  tumor growth: inhibited the tumor growth

## CC1=C(/C=C/C(C)=C/C=C/C(C)=C/CO)C(C)(C)CCC1 [retinol, reference compound]
[3]; [10]
  damage to the rats (bodyweight column): severe damage to the rats
  effect on cancer: effective in arresting the cancer

## O=[Se](O)O [sodium selenite]
[6]
  development of cancerous tumors: completely inhibits
[7]; high fat fed rats
  tumorigenesis, high fat fed animals: did not respond as favorably
[7]; rats on low fat diets
  tumorigenesis, low fat diets: decrease tumorigenesis
[8]
  growth of human prostate carcinoma cells: inhibits the growth
EF-2
  concentration that can inhibit EF-2: 11 µM
